Assay results taken from PMC9263442, “Discovery of Small Molecule KCC2 Potentiators Which Attenuate In Vitro Seizure-Like Activity in Cultured Neurons” (Frontiers in Cell and Developmental Biology, 2022).

Tests used:
Type in all cases: cell-based
[1] = target: T1, KCC2 (Rattus norvegicus, UniProt Q63633); test: SuperClomeleon Cl- flux assay in HEK-293 with and without KCC2
T1 construct: gene Slc12a5; KCC2b isoform expressed in T-REx-293 cells
T1 sequence (Q63633 43-1139 limits assumed): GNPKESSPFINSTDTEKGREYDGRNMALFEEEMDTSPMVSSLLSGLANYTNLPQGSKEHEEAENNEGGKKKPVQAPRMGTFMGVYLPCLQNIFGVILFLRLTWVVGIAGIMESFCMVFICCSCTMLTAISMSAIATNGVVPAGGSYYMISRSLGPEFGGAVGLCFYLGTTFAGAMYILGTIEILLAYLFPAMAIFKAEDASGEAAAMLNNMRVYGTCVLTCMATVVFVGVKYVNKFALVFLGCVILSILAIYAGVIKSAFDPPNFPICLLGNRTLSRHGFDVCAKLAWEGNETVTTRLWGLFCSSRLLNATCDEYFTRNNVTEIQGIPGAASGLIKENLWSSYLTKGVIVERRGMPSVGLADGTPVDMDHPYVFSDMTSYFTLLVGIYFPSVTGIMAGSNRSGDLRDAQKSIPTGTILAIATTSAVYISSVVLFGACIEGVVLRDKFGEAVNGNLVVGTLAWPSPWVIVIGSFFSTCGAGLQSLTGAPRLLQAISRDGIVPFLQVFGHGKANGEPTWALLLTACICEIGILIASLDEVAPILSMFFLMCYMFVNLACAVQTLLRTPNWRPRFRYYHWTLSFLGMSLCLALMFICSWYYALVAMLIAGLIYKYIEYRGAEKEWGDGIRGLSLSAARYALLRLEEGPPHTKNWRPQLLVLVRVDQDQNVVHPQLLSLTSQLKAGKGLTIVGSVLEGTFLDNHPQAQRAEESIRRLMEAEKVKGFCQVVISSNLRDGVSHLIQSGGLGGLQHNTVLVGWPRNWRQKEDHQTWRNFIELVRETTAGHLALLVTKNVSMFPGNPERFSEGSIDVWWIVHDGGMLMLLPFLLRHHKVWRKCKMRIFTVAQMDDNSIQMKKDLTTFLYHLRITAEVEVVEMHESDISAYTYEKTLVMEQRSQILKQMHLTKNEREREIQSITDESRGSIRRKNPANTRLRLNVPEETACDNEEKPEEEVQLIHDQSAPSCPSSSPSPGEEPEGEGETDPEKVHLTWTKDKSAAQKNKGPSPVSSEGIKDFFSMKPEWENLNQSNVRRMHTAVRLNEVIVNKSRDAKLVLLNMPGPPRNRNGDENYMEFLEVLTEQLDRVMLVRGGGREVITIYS

[2] = target: T1, KCC2; test: SuperClomeleon Cl- flux assay in HEK-293 with and without KCC2; Tl+ and […]+ influx
[3] = target: T1, KCC2; test: SuperClomeleon Cl- flux assay in HEK-293 overexpressing KCC2

## Cc1cccc2sc(N(CCN(C)C)C(=O)CCCS(=O)(=O)c3ccccc3)nc12 [VU0500458, N-(2-(Dimethylamino)Ethyl)-N-(4-Methylbenzo[d]Thiazol-2-yl)-4-(Phenylsulfonyl)Butanamide]
[1]
  EC50: 28.8 ± 4.2 µM

## Cc1ccc(S(=O)(=O)CCCC(=O)N(CCN(C)C)c2nc3c(C)cccc3s2)cc1 [VU0500469, N-(2-(Dimethylamino)Ethyl)-N-(4-Methylbenzo[d]Thiazol-2-yl)-4-Tosylbutanamide]
[2]
  EC50: 14.2 ± 0.7 µM

## Cc1cccc2sc(N(CCN(C)C)C(=O)CCCS(=O)(=O)c3ccc(F)cc3)nc12 [VU0916219, N-(2-(Dimethylamino)Ethyl)-4-((4-Fluorophenyl)Sulfonyl)-N-(4-Methylbenzo[d]Thiazol-2-yl)Butanamide]
[3]
  EC50: 17.1 ± 1.2 µM
